Values after ≈ are worked out from the molar mass of the structure shown.
Legend:
Hepatitis B virus [1] = assay: Antiviral activity against HBV infected in human HepDES19 cells assessed as reduction in HBV cccDNA production by measuring inhibition of HBeAg secretion incubated for 5 days by ELISA; format: functional, organism-based; settings: HepDES19, 120 h
Hepatitis B virus [2] = assay: Antiviral activity against HBV infected in human HepG2 cells assessed as reduction in HBeAg secretion incubated for 5 days by counter screen assay; format: functional, organism-based; settings: HepG2, 120 h
[3] = Metabolic stability in human microsomes assessed as clearance; format: ADME, Microsome; settings: read-out: CLH
[4] = Aqueous solubility of the compound; format: physicochemical; settings: buffer
[5] = Permeability of the compound by PAMPA analysis; format: ADME; settings: read-out: permeability
[6] = Octanol-aqueous buffer distribution coefficient, log D of the compound at pH 7.4 by CAMDIS assay; format: physicochemical
[7] = Therapeutic index, ratio of CC50 for cytotoxicity against human HepDES19 cells assessed as reduction in cell viability measured after 5 days by CCK-8 assay to IC50 for antiviral activity against HBV infected in human HepDES19 cells assessed as reduction in HBV cccDNA production by measuring inhibition of HBeAg secretion incubated for 5 days by ELISA; format: toxicity, cell-based; settings: time 5 day, read-out: Ratio CC50/IC50
[8] = Cytotoxicity against human HepDES19 cells assessed as reduction in cell viability measured after 5 days by CCK-8 assay; format: toxicity, cell-based; settings: time 5 day

Row | Structure (SMILES) | IC50 (Hepatitis B virus [1]) [µM] | IC50 (Hepatitis B virus [2]) [µM] | CLint scaled [3] [mL/min/kg] | solubility [4] [µg/mL] | Papp [5] [×10⁻⁶ cm/s] | logD [6] | selectivity ratio at 120 h [7] | CC50 at 120 h [8] [µM]
1 | NC1CCN(c2ccc3c(=O)c4cccc(F)c4oc3c2)C1 (centres undefined) | 4.85 | > 50 | 6.7 | 23 (≈ 77.1 µM) | 0.79 |  |  | 
2 | O=C1Nc2cccc(Cl)c2Oc2cc(N3CCC(C(=O)O)C3)ccc21 (centres undefined) | 14.1 | > 50 |  |  | 1.64 |  |  | 
3 | N#Cc1cc2c(=O)c3cccc(Cl)c3oc2cc1N1CCC(C(=O)O)C1 (centres undefined) | 8.23 | > 50 |  | > 430 |  | < -0.5 |  | 
4 | O=c1c2ccc(N3CCCCC3)cc2oc2c(Cl)cccc12 | 0.98 | > 50 | 20.2 | < 1 | 0.49 |  |  | 
5 | Fc1cccc2c1Oc1cc(N3CCCC3)ccc1C2 | 3.99 | > 50 |  | < 1 |  |  |  | 
6 | CC1(C(=O)O)CCN(c2ccc3c(=O)c4cccc(Cl)c4oc3c2)C1 (centres undefined) | 1.74 | > 50 |  |  | 2.03 | 1.73 |  | 
7 | CCN(CC)c1ccc2c(=O)c3cccc(Cl)c3oc2c1 | 1.65 | > 50 | 20.3 | < 1 | 0.54 |  |  | 
8 | CC1(C)CN(c2ccc3c(=O)c4cccc(Cl)c4oc3c2)CC1C(=O)O (centres undefined) | 12.7 | > 50 |  | 294 (≈ 791 µM) | 0.98 |  |  | 
9 | O=c1c2ccc(N3CCCC3)nc2oc2c(F)cccc12 | 19.2 | > 50 | 20.6 |  | 9.1 |  |  | 
10 | O=C1Nc2ccc(N3CCC(C(=O)O)C3)cc2Oc2c(Cl)cccc21 (centres undefined) | > 50 | > 50 |  | < 415 | 1 |  |  | 
11 | O=c1c2ccc(N3CCOCC3)cc2oc2c(F)cccc12 | 2.1 | > 50 | 20.8 | < 1 | 1.8 |  |  | 
12 | O=C1CCCN1c1ccc2c(=O)c3cccc(F)c3oc2c1 | 0.83 | > 50 | 22 | < 1 | 2.09 |  |  | 
13 | Clc1cccc2c1Oc1cc(N3CCCC3)ccc1C2 | 1.11 | > 50 |  | < 1 | 0.36 |  |  | 
14 | CC(=O)Nc1ccc2c(=O)c3cccc(F)c3oc2c1 | 6.21 | > 50 | 19.7 | < 1 | 8.5 |  |  | 
15 | O=C(O)C1CCN(c2ccc3c(c2)Oc2c(Cl)cccc2S3(=O)=O)C1 (centres undefined) | > 50 | > 50 |  | < 506 | 1.26 |  |  | 
16 | O=C1Nc2ccc(N3CCCC3)cc2Oc2c(Cl)cccc21 | 5.86 | > 50 |  | < 1 | 2.09 |  |  | 
17 | Clc1cccc2c1Oc1cc(N3CCCC3)ccc1C2C1COC1 (centres undefined) | 7.33 | > 50 |  |  | 0.09 |  |  | 
18 | CC1c2ccc(N3CCCC3)cc2Oc2c(Cl)cccc21 (centres undefined) | 1.5 | > 50 |  | < 1 | 0.015 |  |  | 
19 | O=C(O)c1cc2c(=O)c3cccc(Cl)c3oc2cc1N1CCCC1 | > 100 | > 50 | 6.7 | 30 (≈ 87.3 µM) | 8.64 |  |  | 
20 | O=C(O)C1(C(F)(F)F)CCN(c2ccc3c(=O)c4cccc(Cl)c4oc3c2)C1 (centres undefined) | 27 | > 50 |  | > 510 | 1.78 | 1.26 |  | 

Row | Structure (SMILES) | IC50 (Hepatitis B virus [1]) [µM] | IC50 (Hepatitis B virus [2]) [µM] | CLint scaled [3] [mL/min/kg] | solubility [4] [µg/mL] | Papp [5] [×10⁻⁶ cm/s] | logD [6] | selectivity ratio at 120 h [7] | CC50 at 120 h [8] [µM]
21 | OC1(C(F)(F)F)c2ccc(N3CCCC3)cc2Oc2c(Cl)cccc21 (centres undefined) | 19.2 | > 50 |  | < 1 | 6.73 |  |  | 
22 | O=c1c2ccc(N3CCCCCC3)cc2oc2c(F)cccc12 | 7.56 | > 50 | 6.2 | 73 (≈ 234 µM) | 1.64 |  |  | 
23 | CCNc1ccc2c(=O)c3cccc(Cl)c3oc2c1 | 0.17 | > 50 | 15.7 | < 1 | 6.73 |  |  | 
24 | O=c1c2ccc(N3CCC(O)C3)cc2oc2c(F)cccc12 (centres undefined) | 0.43 | > 50 | 17.5 | < 1 | 1.49 |  |  | 
25 | CCNc1ccc2c(=O)c3cccc(F)c3oc2c1 | 0.61 | > 50 | 22.6 | < 1 | 0.36 |  |  | 
26 | O=c1c2ccc(N3CCCC3)cc2oc2c(Cl)cccc12 | 0.23 | > 50 | 18.9 | < 1 | 0.24 |  |  | 
27 | O=C(O)C1CCCN(c2ccc3c(=O)c4cccc(Cl)c4oc3c2)C1 (centres undefined) | 3.82 | > 50 | 6.2 | < 474 | 2.43 |  |  | 
28 | O=C(O)C1CCCN1c1ccc2c(=O)c3cccc(Cl)c3oc2c1 (centres undefined) | 11.5 | > 50 | 6.2 | 290 (≈ 844 µM) | 2.79 |  |  | 
29 | O=C(O)C1CCN(c2cc3oc4c(Cl)cccc4c(=O)c3cc2Cl)C1 (centres undefined) | 1.12 | > 50 |  | < 1 | 1.59 | 1.95 |  | 
30 | O=C(O)C1CCN(c2ccc3c(=O)c4cccc(Cl)c4oc3n2)C1 (centres undefined) | 50 | > 50 | 6.2 | 410 (≈ 1190 µM) | 1.55 |  |  | 
31 | O=C(O)C1CCN(c2cc3oc4c(Cl)cccc4c(=O)c3cn2)C1 (centres undefined) | 4.04 | > 50 |  | > 395 | 0.96 | < -0.5 |  | 
32 | Cn1ccnc1C(=O)Nc1ccc2c(=O)c3cccc(F)c3oc2c1 | 0.49 | > 50 |  |  |  |  | > 102 | > 50
33 | O=C(O)[C@H]1CN(c2ccc3c(=O)c4cccc(Cl)c4oc3c2)C[C@@H]1c1ccc(F)cc1 | 7.39 | > 50 |  |  |  |  |  | 
34 | O=C(O)C1CCN(c2ccc3c(=O)c4c(O)ccc(Cl)c4oc3c2)C1 (centres undefined) | 1.74 | > 50 |  | 200 (≈ 556 µM) | 0.53 | 1.71 |  | 
35 | O=c1c2ccc(N3CCCC3)cc2oc2c(F)cccc12 | 0.21 | > 50 | 20.5 | < 1 | 0.95 |  |  | 
36 | Cc1ccc(Cl)c2oc3cc(N4CCC(C(=O)O)C4)ccc3c(=O)c12 (centres undefined) | 1.12 | > 50 |  | 252 (≈ 704 µM) | 0.59 | 1.75 |  | 
37 | O=C(O)CC1CCN(c2ccc3c(=O)c4cccc(Cl)c4oc3c2)C1 (centres undefined) | 6.62 | > 50 |  | < 465 | 1.55 |  |  | 
38 | CCOc1ccc(Cl)c2oc3cc(N4CCC(C(=O)O)C4)ccc3c(=O)c12 (centres undefined) | 2.86 | > 50 |  | 330 (≈ 851 µM) | 0.7 | 0.93 |  | 
39 | COc1ccc(Cl)c2oc3cc(N4CCC(C(=O)O)C4)ccc3c(=O)c12 (centres undefined) | > 50 | > 50 |  | > 415 | 0.68 | 0.47 |  | 
40 | CN1CCN(c2ccc3c(=O)c4cccc(F)c4oc3c2)CC1 | 16.1 | > 50 | 18 | 27 (≈ 86.4 µM) | 0.08 |  |  | 

— ChEMBL document CHEMBL5137099, “Discovery of Novel cccDNA Reducers toward the Cure of Hepatitis B Virus Infection” (J Med Chem, 2022)
